Results from patent US9549902B2, “Transdermal patch” (BOUTY S.P.A., priority 2005, dated 2017).

What was measured:
[1] = In vitro nitroglycerin permeation across mouse skin in Franz diffusion cells; type: in vitro ADME
Procedure: (§1) With the purpose of analysing the effect of sorbitan monooleate on nitroglycerin permeation kinetics, permeation of nitroglycerin from transdermal patches containing different concentrations of sorbitan monooleate was measured across mouse skin and human skin in Franz diffusion cells (produced by Hanson-Research).
(§2) The test was undertaken as described in the Italian Official Pharmacopoeia XI ed. and the European Pharmacopoeia 4th ed.
The permeation studies were conducted using Franz diffusion cells modified with an aperture 15 mm in diameter (membrane surface area 1.766 cm^2) and 7 ml cell volume. A phosphate buffer at pH 7 maintained under constant agitation was used as receptor fluid within the cell. […]
Within an hour of removal from the animal the skin samples were placed over the aperture of the cells to form a membrane and the transdermal patches to be analysed were each placed over a membrane and fastened with clips.
At determined intervals 300 μl of receptor solution were withdrawn and replaced each time with an equivalent volume of phosphate buffer.
The quantity of nitroglycerin in each sample was determined by means of HPLC analysis, using a 50:50 methanol/water mixture as mobile phase.
The results obtained for each patch were analyzed statistically using the t-test for independent samples. […]

[2] = In vitro nitroglycerin permeation across human skin (SCE membranes) in Franz diffusion cells; type: in vitro ADME
Procedure: as §1, §2
Samples of abdominal skin were obtained from the same donor by means of a surgical procedure.
Membranes consisting of the stratum corneum and epidermis (SCE membranes) were prepared by immersing the skin into distilled water at 60° C.±1° C. for one minute followed by their removal from the dermis. The membranes were dried in a dryer at about 25% ambient humidity, wrapped in aluminium sheets and maintained at a temperature of about −20° C.±1° C. until required. Dried membrane samples were rehydrated at ambient temperature by immersing in a saline solution for 16 hours. […]
The results obtained were analysed statistically using the t-test for independent samples.
The steady-state flux was then determined for each patch by linear regression of the cumulative quantity of drug permeated across the skin (μg/cm^2) as a function of time (h). […]

## sorbitan monooleate
[1]
  Action as absorption enhancer: does not act as an absorption enhancer
[2]
  Action as absorption enhancer: does not act as an absorption enhancer
